Consider 37 compounds from patent publication US20260098026A1, “M4 ACTIVATORS/MODULATORS AND USES THEREOF” (Cerevel Therapeutics, LLC, priority 2022, published 2026).

Assay [1] deals with T1, M3 muscarinic acetylcholine receptor (mAChR) (Homo sapiens, UniProt P20309).
T1 construct: expressed in transfected cells; host or cells: CHO-K1
In words: FLIPR calcium assay (Fluo 8), M3-overexpressing CHO-K1 cells. The format is cell-based. In a few lines: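 CHO-K1 cells overexpressing each human receptor seeded at 15,000 per well, grown overnight at 37° C., 5% CO2, then loaded with Fluo-8 for 30 min. Compounds in HBSS added and calcium response read on FLIPR; EC50 and Emax calculated per subtype.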

In the next assay the target is T2, M4 mAChR (Homo sapiens, UniProt P08173).
T2 construct: expressed in transfected cells; host or cells: CHO-K1
T2 sequence (P08173 1-479): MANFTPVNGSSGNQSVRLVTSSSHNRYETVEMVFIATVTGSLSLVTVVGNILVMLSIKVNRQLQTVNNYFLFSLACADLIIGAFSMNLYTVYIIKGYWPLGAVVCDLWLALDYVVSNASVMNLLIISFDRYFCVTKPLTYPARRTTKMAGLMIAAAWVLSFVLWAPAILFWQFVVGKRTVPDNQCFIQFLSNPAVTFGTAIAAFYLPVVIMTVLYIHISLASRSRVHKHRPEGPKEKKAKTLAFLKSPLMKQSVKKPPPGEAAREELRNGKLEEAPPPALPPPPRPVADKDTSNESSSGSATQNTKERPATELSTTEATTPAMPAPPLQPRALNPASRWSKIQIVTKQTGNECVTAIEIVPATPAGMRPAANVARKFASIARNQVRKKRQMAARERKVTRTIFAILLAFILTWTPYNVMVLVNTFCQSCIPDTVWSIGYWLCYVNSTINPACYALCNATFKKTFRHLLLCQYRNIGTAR
In words: cAMP TR-FRET assay with forskolin, M4-overexpressing CHO-K1 cells. The format is cell-based. In a few lines: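 CHO-K1 cells overexpressing the receptor were stimulated with forskolin to raise cAMP, so that Gi-mediated agonist decreases could be measured. cAMP was quantified by TR-FRET competition between cellular cAMP and labelled donor for anti-cAMP antibody, giving potency and efficacy.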
(In general: In TR-FRET formats the signal depends on donor and acceptor labels being close together.)

The structures appear in SMILES notation. pEC50: −log10 of the molar value.

T1 sequence (P20309 whole entry): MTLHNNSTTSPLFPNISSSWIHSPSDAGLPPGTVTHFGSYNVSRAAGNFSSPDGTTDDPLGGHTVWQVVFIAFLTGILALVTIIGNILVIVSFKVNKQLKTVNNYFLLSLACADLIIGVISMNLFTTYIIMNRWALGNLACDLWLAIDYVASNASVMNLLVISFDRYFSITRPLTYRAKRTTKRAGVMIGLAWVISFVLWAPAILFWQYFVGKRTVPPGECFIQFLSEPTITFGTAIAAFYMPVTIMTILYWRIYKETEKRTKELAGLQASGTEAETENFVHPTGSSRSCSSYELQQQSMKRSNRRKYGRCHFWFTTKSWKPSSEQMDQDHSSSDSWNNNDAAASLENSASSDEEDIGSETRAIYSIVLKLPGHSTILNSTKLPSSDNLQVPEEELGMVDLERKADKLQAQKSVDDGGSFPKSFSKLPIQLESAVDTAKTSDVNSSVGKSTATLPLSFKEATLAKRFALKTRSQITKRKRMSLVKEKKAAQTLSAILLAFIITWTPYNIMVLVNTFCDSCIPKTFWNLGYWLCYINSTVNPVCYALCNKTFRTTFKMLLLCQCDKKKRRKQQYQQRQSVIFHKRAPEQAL

With `CCOC(=O)N1CC2(CC[C@@H](N3CCN(c4cc(F)cnc4-c4cc(F)nc(F)c4)CC3)C2)C1` [Compound A119], the pEC50 (in general, the EC50 on a negative log10 scale, so that one unit is a factor of ten) in assay [1] (FLIPR calcium) was less than 5.00. For the same compound, the maximal effect (Emax) – broadly, the size of the effect at its maximum, as opposed to the concentration needed – on M4 mAChR (cAMP TR-FRET with forskolin) fell in the range of 80 to 100%.
As to `CCOC(=O)N1CC2(CC[C@H](N3CCN(c4cc(F)cnc4C4CCOCC4)CC3)C2)C1` [Compound A274], the negative-log EC50 (pEC50) in assay [1] (FLIPR) is less than 5.00. At M4 mAChR (cAMP assay), this compound showed an Emax of 80 to 100%.
On to `CCOC(=O)N1CC2(CC[C@@H](N3CCN(c4cc(F)cnc4-c4cncc(OC)c4)CC3)C2)C1` [Compound A36], for which the negative-log EC50 (pEC50) in assay [1] (FLIPR calcium) was less than 5.00. Also, on M4 mAChR (cAMP TR-FRET with forskolin), the Emax lay in the range of 80 to 100%.
For the compound `CCOC(=O)N1CC2(CC[C@@H](N3CCN(c4cc(F)cnc4-c4ccncc4C#N)CC3)C2)C1` [Compound A64], in assay [1] (FLIPR calcium), the negative logarithm of the EC50 (pEC50) is less than 5.00. The maximal response (Emax) on M4 mAChR (cAMP TR-FRET with forskolin) lay in the range of 80 to 100%.
For the compound `CCOC(=O)N1CC2(CC[C@@H](N3CCN(c4cc(F)cnc4-c4cc(C)[nH]c(=O)c4)CC3)C2)C1` [Compound A205], in assay [1] (FLIPR), the pEC50 is less than 5.00. Moreover, the maximal response (Emax) at M4 mAChR (cAMP assay) is 80 to 100%.
Regarding `CCOC(=O)N1CC2(CC[C@@H](N3CCN(c4cc(F)cnc4-c4cccnc4C)CC3)C2)C1` [Compound A109], the negative-log EC50 (pEC50) in assay [1] (FLIPR calcium) is less than 5.00. This compound yielded an Emax at M4 mAChR (cAMP TR-FRET with forskolin) of 80 to 100%.
For `CCOC(=O)N1CC2(CC[C@@H](N3CCN(c4cc(F)cnc4-c4cncc(OCC)c4)CC3)C2)C1` [Compound A122] the same measures were less than 5.00 and 80 to 100%.
On to `CCOC(=O)N1CC2(CC[C@@H](N3CCN(c4cc(F)cnc4-c4c[nH]nc4C4CC4)CC3)C2)C1` [Compound A170], for which the pEC50 in assay [1] (FLIPR) is less than 5.00. For the same compound, the Emax on M4 mAChR (cAMP assay) was in the range of 80 to 100%.
Regarding `CCOC(=O)N1CC2(CC[C@@H](N3CCN(c4cc(F)cnc4-c4ccc5c(c4)ncn5C)CC3)C2)C1` [Compound A131], the negative-log EC50 (pEC50) in assay [1] (FLIPR calcium) is less than 5.00. This compound also yielded an Emax at M4 mAChR (cAMP TR-FRET with forskolin) of 80 to 100%.
As for `CCOC(=O)N1CC2(CC[C@@H](N3CCN(c4cc(F)cnc4-c4ccnc5c4ccn5C)CC3)C2)C1` [Compound A89], the pEC50 in assay [1] (FLIPR calcium) was less than 5.00. At M4 mAChR (cAMP TR-FRET with forskolin), this compound returned an Emax of 80 to 100%.
On the same counts, the results for `CCOC(=O)N1CC2(CC[C@@H](N3CCN(c4cc(F)cnc4-c4cnccc4OC)CC3)C2)C1` [Compound A69] are less than 5.00 and 80 to 100%.
For `CCOC(=O)N1CC2(CC[C@@H](N3CCN(c4cc(F)cnc4-c4cnn(C(F)(F)F)c4)CC3)C2)C1` [Compound A285], in assay [1] (FLIPR), the negative-log EC50 (pEC50) was less than 5.00. Further, the Emax on M4 mAChR (cAMP assay) was 80 to 100%.
On the same counts, the results for `CCOC(=O)N1CC2(CC[C@@H](N3CCN(c4cc(F)cnc4-c4ccc(=O)[nH]c4C)CC3)C2)C1` [Compound A201] are less than 5.00 and 80 to 100%.
Regarding `CCOC(=O)N1CC2(CC[C@@H](N3CCN(c4cc(Cl)cnc4-n4cc(C)nn4)CC3)C2)C1` [Compound A247], in assay [1] (FLIPR), the pEC50 was less than 5.00. Moreover, the maximal response (Emax) at M4 mAChR (cAMP assay) is 80 to 100%.
Regarding `CCOC(=O)N1CC2(CC[C@@H](N3CCN(c4cc(F)cnc4-c4cnc5c(ccn5C)c4)CC3)C2)C1` [Compound A99], in assay [1] (FLIPR calcium), the pEC50 was less than 5.00. Moreover, the Emax on M4 mAChR (cAMP TR-FRET with forskolin) is 80 to 100%.
On the same counts, the results for `CCOC(=O)N1CC2(CC[C@@H](N3CCN(c4cc(F)cnc4-c4cccc(O)c4F)CC3)C2)C1` [Compound A142] are less than 5.00 and 80 to 100%.
Consider `CCOC(=O)N1CC2(CC[C@@H](N3CCN(c4cc(F)cnc4-c4cncc(C(C)(C)O)c4)CC3)C2)C1` [Compound A41], for which, in assay [1] (FLIPR calcium), the pEC50 is less than 5.00. The Emax on M4 mAChR (cAMP TR-FRET with forskolin) lay in the range of 80 to 100%.
As to `CCOC(=O)N1CC2(CC[C@@H](N3CCN(c4cc(F)cnc4-c4cnn(C(C)C)c4)CC3)C2)C1` [Compound A195], in assay [1] (FLIPR), the pEC50 was less than 5.00. Moreover, the Emax at M4 mAChR (cAMP assay) was in the range of 50 to 79.9%.
Turning to `CCOC(=O)N1CC2(CC[C@@H](N3CCN(c4cc(F)cnc4-c4cc(C)cnc4F)CC3)C2)C1` [Compound A108], the negative-log EC50 (pEC50) in assay [1] (FLIPR calcium) is less than 5.00. This compound also yielded an Emax on M4 mAChR (cAMP TR-FRET with forskolin) of 80 to 100%.
For `CCOC(=O)N1CC2(CC[C@@H](N3CCN(c4cc(F)cnc4-c4cc(C)cc(CO)c4)CC3)C2)C1` [Compound A141] the same measures were less than 5.00 and 80 to 100%.
For the compound `CCOC(=O)N1CC2(CC[C@@H](N3CCN(c4cccnc4-c4cncc(F)c4)CC3)C2)C1` [Compound A26], the negative logarithm of the EC50 (pEC50) in assay [1] (FLIPR calcium) was less than 5.00. Moreover, the Emax on M4 mAChR (cAMP TR-FRET with forskolin) was in the range of 80 to 100%.
With `CCOC(=O)N1CC2(CC[C@@H](N3CCN(c4cc(F)cnc4-n4ccc(C)n4)CC3)C2)C1` [Compound A291], in assay [1] (FLIPR), the pEC50 is less than 5.00. In addition, the Emax on M4 mAChR (cAMP assay) lay in the range of 50 to 79.9%.
On the same counts, the results for `CCOC(=O)N1CC2(CC[C@@H](N3CCN(c4cc(F)cnc4-c4cnn(CCF)c4)CC3)C2)C1` [Compound A171] are less than 5.00 and 80 to 100%.
For `CCOC(=O)N1CC2(CC[C@@H](N3CCN(c4cc(F)cnc4-c4ccc(CO)s4)CC3)C2)C1` [Compound A88], in assay [1] (FLIPR calcium), the pEC50 was less than 5.00. On M4 mAChR (cAMP TR-FRET with forskolin), this compound gave a maximal effect (Emax) of 80 to 100%.
For `CCOC(=O)N1CC2(CC[C@@H](N3CCN(c4cc(Cl)cnc4C4CC5(COC5)C4)CC3)C2)C1` [Compound A279], the pEC50 in assay [1] (FLIPR) is less than 5.00. The compound further came in with an Emax on M4 mAChR (cAMP assay) of 80 to 100%.
On the same counts, the results for `CCOC(=O)N1CC2(CC[C@@H](N3CCN(c4cc(F)cnc4-c4cc(F)ncc4F)CC3)C2)C1` [Compound A153] are less than 5.00 and 80 to 100%.
On the same counts, the results for `CCOC(=O)N1CC2(CC[C@@H](N3CCN(c4cc(F)cnc4-c4cnc(OC(F)F)cn4)CC3)C2)C1` [Compound A235] are less than 5.00 and 80 to 100%.
On the same counts, the results for `CCOC(=O)N1CC2(CC[C@@H](N3CCN(c4cc(Cl)cnc4-c4cnn(C(C)C)n4)CC3)C2)C1` [Compound A258] are less than 5.00 and 50 to 79.9%.
Consider `CCOC(=O)N1CC2(CC[C@@H](N3CCN(c4cc(F)cnc4-c4cn(C)nn4)CC3)C2)C1` [Compound A230], for which the negative-log EC50 (pEC50) in assay [1] (FLIPR) was less than 5.00. Further, at M4 mAChR (cAMP assay), the Emax lay in the range of 80 to 100%.
For `CCOC(=O)N1CC2(CC[C@@H](N3CCN(c4cc(F)cnc4-c4ccc(OC(F)F)nc4)CC3)C2)C1` [Compound A189] the same measures were less than 5.00 and 80 to 100%.
Take `CCOC(=O)N1CC2(CC[C@@H](N3CCN(c4cc(F)cnc4-c4cnc(OC)cn4)CC3)C2)C1` [Compound A226]: in assay [1] (FLIPR), the pEC50 is less than 5.00. The compound further gave a maximum response (Emax) on M4 mAChR (cAMP assay) of 80 to 100%.
Take `CCOC(=O)N1CC2(CC[C@@H](N3CCN(c4cc(F)cnc4-c4cncc(C)c4)CC3)C2)C1` [Compound A31]: the pEC50 in assay [1] (FLIPR calcium) is less than 5.00. Moreover, on M4 mAChR (cAMP TR-FRET with forskolin), the Emax lay in the range of 80 to 100%.
In the case of `CCOC(=O)N1CC2(CC[C@@H](N3CCN(c4cc(F)cnc4-c4ccc5nc[nH]c5c4)CC3)C2)C1` [Compound A148], in assay [1] (FLIPR), the pEC50 was less than 5.00. In addition, the Emax at M4 mAChR (cAMP assay) lay in the range of 80 to 100%.
With `CCOC(=O)N1CC2(CC[C@@H](N3CCN(c4cc(F)cnc4-c4cnc(F)c(F)c4)CC3)C2)C1` [Compound A79], the pEC50 in assay [1] (FLIPR calcium) was less than 5.00. In addition, on M4 mAChR (cAMP TR-FRET with forskolin), the Emax is 80 to 100%.
On the same counts, the results for `CCOC(=O)N1CC2(CC[C@@H](N3CCN(c4cc(F)cnc4-c4cnccn4)CC3)C2)C1` [Compound A6, (R)-ethyl 6-(4-(5-fluoro-2-(pyrazin-2-yl)pyridin-3-yl)piperazin-1-yl)-2-azaspiro[3.4]octane-2-carboxylate] are less than 5.00 and 80 to 100%.
On the same counts, the results for `CCOC(=O)N1CC2(CC[C@@H](N3CCN(c4cc(F)cnc4-c4cc(F)ccc4CO)CC3)C2)C1` [Compound A117] are less than 5.00 and 80 to 100%.
For `CCOC(=O)N1CC2(CC[C@@H](N3CCN(c4cc(F)cnc4-c4cc(C)nn4C)CC3)C2)C1` [Compound A144] the same measures were less than 5.00 and 80 to 100%.
